Measurements from patent US20230227547A1, “ANTIBODY-PAYLOAD CONJUGATES WITH ENHANCED DELIVERY DOMAIN AND USES THEREOF” (IPROGEN BIOTECH INC., priority 2019, published 2023).

Legend:
T47D cells [1] = assay: Anti-HER2 mAb delivery efficiency using LL37-derived peptide constructs; type: cell-based, human; conditions: peptide conjugated to anti-HER2 mAb light chain, 100 nM Ab, Z-GFP (PEP#6, 35-43) or Goat anti-human IgG-AlexaFluor 488 (PEP#6, 47-94) fluorescence microscopy
Procedure: (§1) LL37 and LL37-derived peptides were produced synthetically with two additional N-terminal glycine residues (e.g. as shown in SEQ ID NO:2 compared to SEQ ID NO: 1) to enable the sortase reaction. The LL37-derived peptides (PEP#35 to #43, SEQ ID NOs: 13-21) were all dissolved at 10 mg/ml in phosphate buffer saline (PBS) at room temperature, sterile-filtered, and stored at -20° C. freezer. PEP#48 (SEQ ID: 74), PEP#49 (SEQ ID No: 75), and PEP#60 (SEQ ID NO: 105) were dissolved in 20% (v/v) acetonitrile in PBS. PEP#47 (SEQ ID NO: 96), PEP#86 (SEQ ID NO: 78), PEP#98 (SEQ ID NO: 79), PEP#99 (SEQ ID NO: 80), PEP#102 (SEQ ID NO: 82), and PEP#104 (SEQ ID NO: 84) were dissolved in DMSO. PEP#50 (SEQ ID No: 76), PEP#51 (SEQ ID No: 97), PEP#55 (SEQ ID No: 77), PEP#58 (SEQ ID No: 103), PEP#59 (SEQ ID No: 104), PEP#61 (SEQ ID No: 106), PEP#62 (SEQ ID No: 107), PEP#63 (SEQ ID No: 108), PEP#64 (SEQ ID No: 109), PEP#66 (SEQ ID No: 110), and PEP#94 (SEQ ID No: 35) were all dissolved in PBS. […] The reaction was incubated inside a 37° C. incubator for 16 hours, and then EDTA (pH 7.5) was added to 10 mM in the reaction mixture to chelate calcium and stop the reaction.
Delivery assay: The following delivery assay method was used on the anti-HER2 mAbs conjugated to the PEP#6, #35, #36, #37, #38, #39, #40, #41, #42, and #43 described in Table 7. […] The plates were then removed from the incubator, and the culturing media was removed from the adherent cells. The adherent cells were washed gently with an equal volume of ice-cold PBS. Then, the PBS wash was replaced 250 µl of fresh PBS for fluorescence microscope imaging.
At the end of incubation, the adherent target cells were washed twice with ice-cold PBS, fixed with 2% (w/v) formaldehyde in PBS at room temperature for 15 minutes, and washed twice with PBS at room temperature. The fixed adherent target cells were then permeabilized with 0.05% (v/v) Tween-20 in PBS at room temperature for 15 minutes. The permeabilized cells were then incubated with 5% (v/v) FBS, 0.05% (v/v) Tween-20 in PBS at 37 degree Celsius incubator for 30 minutes. The secondary antibody, Goat anti-human IgG-AlexaFluor 488, was added to 5 ug/ml in 5% (v/v) FBS, 0.05% (v/v) Tween-20 in PBS, and incubated with the treated target cells at 37 degree Celsius incubator for 30 minutes. After incubation, the labelled cells were washed twice with PBS, and stored in storage buffer [5% (v/v) FBS in PBS] at 4 degree Celsius until fluorescence microscope imaging. The delivery of mAb and mAb-LL37-derived peptides were determined qualitatively by estimating the green fluorescence intensity emitted from the AlexFluor488-labelled secondary antibody bound to mAb or mAb-LL37-derived peptides.

T47D cells [2] = assay: Anti-HER2 mAb delivery efficiency using antimicrobial peptides; type: cell-based, human; conditions: peptide conjugated to anti-HER2 mAb, 100 nM + 100 nM Z-GFP, 4 hours
Procedure: as §1
The plates were then removed from the incubator, and the culturing media was removed from the adherent cells. […] Then, the PBS wash was replaced 250 µl of fresh PBS for fluorescence microscope imaging.

LLGDFFRKSKEKIGKEFKRIVQRIKDFLRNLVPRTES [PEP#6 (LL37), two N-terminal glycines added for conjugation]
Delivery efficiency (T47D cells [1]): +++ (Same as LL37)
Delivery efficiency (T47D cells [2]): +++ (Same as LL37)
